Reference: the METLIN SMRT retention time set (Domingo-Almenara et al. 2019)

Assay: gradient 5% acetonitrile 3 min, to 50% in 2 min, to 85% in 15 min, held 3 min, 100 µL/min
Conditions: column: Zorbax Extend-C18 2.1 x 50 mm; eluents: water / acetonitrile, 0.1% formic acid
How it was run: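 Mixtures of ~100 pure standards were chromatographed on a Zorbax Extend-C18 column (2.1 × 50 mm, 1.8 μm) at 100 μL/min using water and acetonitrile, each with 0.1% formic acid. Detection used a quadrupole time-of-flight mass spectrometer in positive and negative ionization mode, and data collection spanned 3 months. Retention time was obtained from adduct peaks picked computationally and each checked manually.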

SMILES | RP-LC retention time [s]
S=C1SCN(CCc2ccccc2)CN1CCc1ccccc1 | 1210
Cc1c(-c2nsc(Nc3ccccc3)n2)nnn1-c1ccccc1 | 946
CC(C)CC(=O)N1CCC2(CC1)c1nccn1-c1ccccc1CN2C | 580
CCOc1ccc(-c2noc(CN3N=NC4C(=O)N(c5ccc(CC)cc5)C(=O)C43)n2)cc1OC (centres undefined) | 1030
COc1ccc(CCNc2nc(-c3ccccc3)cs2)cc1OC | 830
Cc1nn(CCCC(=O)Nc2cccc(F)c2)c(=O)c2nn(-c3ccccc3)c(C)c12 | 709
CCc1nc(OCC(=O)Nc2ccccc2Br)c2ccccc2n1 | 827
Cc1ccc(Cn2c(=O)n(CCNC(=O)C3CCC3)c3ncccc32)cc1 | 779
O=C(Cn1cc(-c2ccccc2)c2ncnc(N3CCCCC3)c21)Nc1ccccc1 | 798
CC(C)CNC(=O)c1cn(-c2ccc(NC(=O)C(C)C)cn2)cn1 | 702
Cc1cc(C)n(-c2ccc(SCc3ccccc3Cl)nn2)n1 | 1150
CSc1ccccc1-c1nnc(NC(=O)c2cc(Cl)sc2Cl)o1 | 937
COc1ccc(C2Cn3cnc(-c4nc(-c5ccc(OC)cc5OC)no4)c3CO2)cc1 (centres undefined) | 912
Cc1ccc2nc(Cl)c3cc(C(=O)N4CCN(c5ccccn5)CC4)sc3c2c1 | 719
O=C(Nc1nc(CC(=O)N2CCn3c2nc2ccccc23)cs1)c1ccsc1 | 657
CCn1cc(C(=O)Nc2cccc(F)c2)c2cccnc21 | 892
CSc1ccccc1NC(=O)C(=O)NCCn1nc(-c2ccco2)ccc1=O | 781
O=C(Nc1cccc2ccc(-n3ccnc3)nc12)C1COc2ccccc2O1 (centres undefined) | 674
O=C(Nc1ccc2c(c1)CCN(Cc1ncn[nH]1)C2)c1ccccc1-c1ccc(C(F)(F)F)cc1 | 755
C[C@@H](NC(=O)c1cccc(Br)c1)C(=O)NCc1cscn1 | 665
COC(=O)COc1cc(-c2cccc(Cl)c2)nc2ccc(NC(=O)c3ccco3)cc12 | 886
CCCC(C)NC(=O)c1cc2c(s1)N(C)CCCC2 (centres undefined) | 974
Cc1cccc2nc(-c3ccc(Cl)cc3)c(Nc3ccc4c(c3)OCCO4)n12 | 701

SMILES | RP-LC retention time [s]
Cc1ccc(Cn2cc(-c3ccncc3)cc2C(=O)N(C)Cc2ccccc2)cc1 | 751
COc1ccc(-c2n[nH]c3c2C(c2cc(OC)ccc2OC)NC3=O)cc1 (centres undefined) | 729
Cn1nc(C(=O)NCc2cc(-c3cccs3)on2)ccc1=O | 650
COc1ccc(N2CCN(C(CNC(=O)C(=O)Nc3ccon3)c3ccco3)CC2)cc1 (centres undefined) | 591
CCCn1ncc(N2CCC(C(=O)N3CCCCC3)CC2)cc1=O | 559
CCNc1nc(NC(C)C)nc(-c2ccncc2)n1 | 733
O=C(Cn1cnc2nc(N3CCC(C(=O)NC4CC4)CC3)sc2c1=O)Nc1ccc(Cl)cc1 | 686
Cc1ccc(-n2nc(C(=O)N3CCN(c4ccccn4)CC3)c(=O)n(C)c2=O)cc1 | 625
CC(C)N1CCN(c2ncc(C(=O)Nc3ccccc3)c(N)n2)CC1 | 591
COc1ccccc1-c1noc(-c2nc(C)no2)n1 | 877
COCCOc1ccc(N2CCN(CCn3ncc4c3nc(N)n3nc(-c5ccco5)nc43)CC2)cc1 | 665
O=C(CSc1ncccc1C(=O)O)Nc1nc(-c2ccccc2)cs1 | 822
Cc1ccc(-c2csc(NC(=O)CSc3nc4c(cc3C#N)C(=O)CCC4)n2)cc1 | 583
CCOCCCNC(=O)c1cc2sc(CC)cc2n1C | 960
CC(C)CCn1c(SCc2cc(=O)n3ccccc3n2)nc2c(-c3ccccc3)cn(C)c2c1=O | 1200
Cc1nn(-c2ccc(C(=O)NCc3cccs3)cc2)c2c1C(=O)CC(C)(C)C2 | 841
CCOc1cc(C(=O)NC(C(=O)Nc2nc3ccccc3[nH]2)C(C)CC)cc(OCC)c1OCC (centres undefined) | 854
Cc1c(Cl)cccc1NC(=O)C(=O)NCC(O)c1ccc(C(F)(F)F)cc1 (centres undefined) | 936
CCCN1CCN(c2ncc3c(n2)CCN(Cc2cc(F)cc(F)c2)C3)CC1 | 549
CCC(C)NC(=O)c1c2c(cn(-c3ccccc3)c1=O)C(=O)CC(C)(C)C2 (centres undefined) | 942
COc1cc(OC)cc(C(=O)N2CCC(c3cc(N)on3)CC2)c1 | 677
CC(C)c1cnc2c(c1SCc1ccccn1)c(=O)n(C)c(=O)n2C | 737
CCOc1ccc(-c2nc(C3CC(=O)N(c4ccc(Cl)cc4)C3)no2)cc1OCC (centres undefined) | 1150

Next, values leading:

RP-LC retention time [s] | SMILES
788 | O=S(=O)(c1cccc(Cl)c1)N1CC(F)(F)C[C@H]1CN1CCc2ccccc2C1
678 | COc1ccc(N2CCN(C(=O)C3CC(=O)N(c4ccc5oc(C)nc5c4)C3)CC2)cc1 (centres undefined)
1050 | CCCN1C(=O)c2cc(S(=O)(=O)NCCc3cccs3)ccc2Oc2cccnc21
1150 | COc1ccc(S(=O)(=O)N2CCC(c3noc(-c4ccccc4C)n3)CC2)cc1
841 | CC(C)CCNC(=O)C1CCCN(S(=O)(=O)c2ccc3nc(-c4ccccc4)[nH]c3c2)C1 (centres undefined)
674 | Cc1cc(C)n(-c2ccnc(N3CCC(C(=O)NCC4CCCO4)CC3)n2)n1 (centres undefined)
820 | Cc1ccc(CN2C(=O)NC3(CCN(C(=O)c4cccs4)CC3)C2=O)cc1
1050 | Cc1ccc(CNC(=O)C2(C)CCN(S(=O)(=O)c3ccc(C)c(C)c3)CC2)cc1
627 | CCCNC(=O)C1CCN(c2ccc(SCC(=O)N(C)c3ccccc3)nn2)CC1
643 | COCC1CN(S(=O)(=O)c2ccc(C)c(F)c2)CC12CCNCC2 (centres undefined)
819 | CCc1noc(NC(C)=O)c1-c1ccc(C)c(S(=O)(=O)Nc2cc(OC)ccc2OC)c1
643 | Nc1nc(N2CCCC2)ncc1C(=O)NCc1ccccc1F
580 | Cc1ccccc1S(=O)(=O)N1CCCC(CCC(=O)NCC2CCCCC2)C1 (centres undefined)
700 | O=S(=O)(NCCS(=O)(=O)N1CCc2ccccc21)c1cccnc1
769 | COc1cccc(NC(=O)C2CCN(c3c(C)n(C)c(=O)n(C)c3=O)CC2)c1
733 | COCc1noc(C2CN(C(=O)c3ocnc3C)CC23CCCC3)n1 (centres undefined)
811 | O=C(NCc1csc(C2CCN(S(=O)(=O)c3ccccc3F)CC2)n1)C1CCC1
676 | CC(=O)Nc1ccc(C(=O)NCc2cccs2)c(N2CCCCC2)c1
834 | COC(=O)c1ccc(NC(=O)C(=O)NCC2(c3ccc(F)cc3)CC2)cc1
1110 | Cc1ccc(NC(=O)Cn2cc3c(n2)CCC(C)C3)c(Cl)c1 (centres undefined)
809 | COc1ccc(NC(=O)c2sc(N3CCCC3=O)nc2C)cc1Cl
651 | COC[C@@H]1CN(S(=O)(=O)c2ccc(C)cc2)C[C@H]1c1ccncc1

RP-LC retention time [s] | SMILES
969 | CCCn1cc(C(=O)NCC(=O)OC)c(S(=O)(=O)N2CCN(c3ccccc3OCC)CC2)n1
924 | Cc1ccc(NC(=O)Cn2c(=O)c3cc(-c4cccs4)nn3c3ncccc32)cc1F
906 | O=C(NCCc1ccccc1)C1CCCN(C(=O)Cc2cccc3ccccc23)C1 (centres undefined)
1010 | CCn1c(=O)c(N2CCCC(C(=O)NCCc3c[nH]c4ccc(Cl)cc34)C2)nc2ccccc21 (centres undefined)
686 | CCOc1cccc(CNC(=O)C2CCN(Cc3cn(C)c4ccccc34)CC2)c1
876 | CC1=C(c2ccc(C)c(C)c2)S(=O)(=O)N=C1N1CCCN(C(=O)NC2CCCC2)CC1
651 | Cc1nn(CC(=O)NCC2CCCO2)c(=O)c2nn(-c3ccccc3)c(C)c12 (centres undefined)
953 | COc1cc(SC)ccc1C(=O)NCCc1c[nH]c2ccc(C)cc12
609 | O=S(=O)(Cc1cccc(Cl)c1)NCC(c1ccc(F)cc1)N1CCOCC1 (centres undefined)
593 | O=C(NCCC1=CCCCC1)C(=O)NCC1CCN(Cc2ccccc2)CC1
1050 | COC(=O)c1[nH]c(C)c(C(=O)C(C)N(CC2CCCCC2)C(=O)c2ccccc2)c1C (centres undefined)
832 | Cc1ccc(S(=O)(=O)N2CCCC(Cn3c(C4CC4)nc4cccnc43)C2)c(C)c1 (centres undefined)
850 | CCC(=O)N1CCCc2cc(NC(=O)COc3ccc(F)cc3)ccc21
770 | O=C(c1ccc2cc[nH]c2c1)N1CCC2(CC1)N=C(c1ccccc1)NO2
608 | Cc1cnc(Nc2ccc(N3CCN(C)CC3)cc2)nc1Nc1cccc(S(=O)(=O)NC(C)(C)C)c1
740 | COc1ccc(OC)c(NC(=O)Cn2c(=O)nc(NC3CCCC3)c3ccccc32)c1
1110 | COc1cccc(S(=O)(=O)N2CCC(c3noc(-c4cccc(F)c4)n3)CC2)c1
856 | Cc1noc(C)c1S(=O)(=O)N1CCC(c2nn(C)c(=O)n2C2CCCC2)CC1
612 | CCCc1cc(N2CCN(C(=O)c3ccc(N(C)C)cc3)CC2)nc2nncn12
712 | CC(C)NC(=O)CN1C(=O)COc2ccc(C(=O)NC3CCCC3)cc21
604 | COc1cccc(CC(=O)N2CCC(Nc3ncnc4c3CCC4)C2)c1 (centres undefined)
